Measured values reported in PMC11899342, “Novel Triazeneindole Antibiotics: Synthesis and Hit-to-Lead Optimization” (International Journal of Molecular Sciences, 2025).

System: MRSA clinical isolates
Assay: Antibiotic susceptibility profile of MRSA clinical isolates (EUCAST breakpoints)
Type: cell-based, Staphylococcus aureus
Description: Clinical MRSA isolates with multidrug resistance were obtained from the collection of the Research Institute of Antimicrobial Chemotherapy, Smolensk State Medical Academy.

Measured: Drug sensibility profile

CO/N=C(\C(=O)N[C@@H]1C(=O)N2C(C(=O)O)=C(COC(C)=O)CS[C@H]12)c1csc(N)n1 [CEF, cefotaxime]
S: MRSA strain 1 | MRSA strain 2 | MRSA strain 3 | MRSA strain 4 | MRSA strain 5 | MRSA strain 7 | MRSA strain 9 | MRSA strain 10 | MRSA strain 12 | MRSA strain 14 | MRSA strain 15 | MRSA strain 16 | MRSA strain 17 | MRSA strain 18 | MRSA strain 23 | MRSA strain 24 | MRSA strain 25 | MRSA strain 28 | MRSA strain 29 | MRSA strain 30 | MRSA strain 40 | MRSA strain 42 | MRSA strain 43 | MRSA strain 45 | MRSA strain 46 | MRSA strain 49 | MRSA strain 51
S S S S S S S: MRSA strain 26 | MRSA strain 36
R: MRSA strain 6 | MRSA strain 8 | MRSA strain 13 | MRSA strain 21 | MRSA strain 27 | MRSA strain 31 | MRSA strain 34 | MRSA strain 35 | MRSA strain 41 | MRSA strain 44 | MRSA strain 48 | MRSA strain 50

CCC[C@@H]1C[C@@H](C(=O)N[C@@H]([C@H]2O[C@H](SC)[C@H](O)[C@@H](O)[C@H]2O)[C@H](C)Cl)N(C)C1 [CLIND, clindamycin]
R: MRSA strain 2 | MRSA strain 5 | MRSA strain 6 | MRSA strain 7 | MRSA strain 12 | MRSA strain 14 | MRSA strain 16 | MRSA strain 21 | MRSA strain 23 | MRSA strain 31 | MRSA strain 40 | MRSA strain 45 | MRSA strain 48 | MRSA strain 50
S S S S S S S: MRSA strain 26 | MRSA strain 36
S: MRSA strain 1 | MRSA strain 3 | MRSA strain 4 | MRSA strain 8 | MRSA strain 9 | MRSA strain 10 | MRSA strain 13 | MRSA strain 15 | MRSA strain 17 | MRSA strain 18 | MRSA strain 24 | MRSA strain 25 | MRSA strain 27 | MRSA strain 28 | MRSA strain 29 | MRSA strain 30 | MRSA strain 34 | MRSA strain 35 | MRSA strain 41 | MRSA strain 42 | MRSA strain 43 | MRSA strain 44 | MRSA strain 46 | MRSA strain 49 | MRSA strain 51
